Measured values from PubChem BioAssay AID1159565 (GlaxoSmithKline (GSK), 2015).
Calls of active or inactive are those of the source. No rule for the calls is given here.

Test system: T. cruzi-infected H9C2 cardiomyocytes, high-content imaging
Assay: intracellular T. cruzi amastigote inhibition, imaging, H9C2 host cardiomyocytes, host toxicity (AID 1159565);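 also: infected cells incubated 72 h after plating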
[1] = measured here: H9C2 host cell toxicity
[2] = measured here: amastigotes per cell

Cc1occc1C(=O)Nc1ccccc1C(=O)Nc1nccs1
IC50: > 50 µM (inactive) | IC50 [1]: > 50 µM | IC50 [2]: 32 µM

COc1ccc(C(=O)N2CCC(Nc3cccnc3)C2)c(OC)n1 (stereo not given)
IC50: 0.79 µM | IC50 [1]: > 50 µM | IC50 [2]: 0.79 µM

N#Cc1c(Oc2cccc(Cl)c2)cccc1[N+](=O)[O-]
IC50: 0.63 µM | IC50 [1]: 16 µM | IC50 [2]: 0.13 µM

O=C(NCCCn1cnc2ccccc21)c1ccc(NC(=O)c2ccco2)cc1
IC50: 2 µM | IC50 [1]: > 50 µM | IC50 [2]: 1.3 µM

CCCCCNC(=O)c1c[nH]c2ccc(S(=O)(=O)N(C)c3ccc(OCC)cc3)cc2c1=O
IC50: > 50 µM (inactive) | IC50 [1]: > 50 µM | IC50 [2]: > 50 µM

COc1ccc(NS(=O)(=O)c2cc(NC(=O)c3ccc([N+](=O)[O-])s3)ccc2OC)cc1
IC50: 0.1 µM | IC50 [1]: > 50 µM | IC50 [2]: 0.079 µM

COc1cc(OC)cc(C(NS(=O)(=O)c2ccc(Cl)c(C(F)(F)F)c2)c2nccn2C)c1 (stereo not given)
IC50: 6.3 µM | IC50 [1]: 10 µM | IC50 [2]: 3.2 µM

COc1cc(C2SCC(=O)Nc3c2c(C)nn3-c2nc3ccccc3s2)cc(OC)c1O (stereo not given)
IC50: > 50 µM (inactive) | IC50 [1]: > 50 µM | IC50 [2]: > 50 µM

COCc1cnc2c(c1SCc1c(F)cccc1Cl)c(=O)n(C)c(=O)n2C
IC50: 4 µM | IC50 [1]: > 50 µM | IC50 [2]: 2.5 µM

COc1ccc(Nc2nc(-c3ccccn3)cc(N3CCCC(O)C3)n2)cc1 (stereo not given)
IC50: 5 µM | IC50 [1]: 4 µM | IC50 [2]: 7.9 µM

Cc1nn(C2CCS(=O)(=O)C2)c(C)c1CN(C)C(=O)C=Cc1sc2ccccc2c1Cl (stereo not given)
IC50: 0.5 µM | IC50 [1]: > 50 µM | IC50 [2]: 0.32 µM

Cc1ccc(Nc2nc(N)nc(CNC(c3nc4ccccc4[nH]3)C(C)C)n2)cc1 (stereo not given)
IC50: 7.9 µM | IC50 [1]: > 50 µM | IC50 [2]: 5 µM

COc1ccc(NS(=O)(=O)c2cc(NC(=O)Cc3ccc(C)cc3)ccc2N2CCOCC2)cc1
IC50: 5 µM | IC50 [1]: > 50 µM | IC50 [2]: 2.5 µM

c1ccc(-c2nc(NC3CCCC3)c3ccccc3n2)nc1
IC50: 0.79 µM | IC50 [1]: 0.5 µM | IC50 [2]: 2 µM

NC(=O)c1ncccc1Nc1nc(NC2CCC(O)CC2)ncc1Br (stereo not given)
IC50: 2 µM | IC50 [1]: 0.63 µM | IC50 [2]: 0.5 µM

CN(Cc1cccnc1)Cc1ccc(N2CCN(C(=O)C3(c4ccc(Cl)cc4)CC3)CC2)nc1
IC50: 1.6 µM | IC50 [1]: > 50 µM | IC50 [2]: 1.3 µM

O=C(CC1(O)C(=O)N(Cc2ccccc2)c2ccc(Br)cc21)c1cccnc1 (stereo not given)
IC50: 25 µM | IC50 [1]: 3.2 µM | IC50 [2]: 20 µM

Cc1ccc(S(=O)(=O)Nc2ccc(CN3CCN(C(=O)c4cccc(C#N)c4)CC3)cc2)cc1
IC50: 0.5 µM | IC50 [1]: > 50 µM | IC50 [2]: 0.4 µM

O=C(c1cc2cc(Cl)ccc2[nH]1)N1CCCCC1c1cccnc1 (stereo not given)
IC50: 0.13 µM | IC50 [1]: 32 µM | IC50 [2]: 0.13 µM

CCc1c(C)nc(-n2nc(C)cc2NC(=O)COc2ccccc2F)[nH]c1=O
IC50: 0.63 µM | IC50 [1]: 2.5 µM | IC50 [2]: 0.16 µM

COc1ccc(C(=O)Nc2c(C)nn(COc3cccc(C(F)(F)F)c3)c2C)cc1
IC50: 40 µM | IC50 [1]: > 50 µM | IC50 [2]: 25 µM

CC(C(=O)Nc1ccccc1F)N(C)CC(=O)Nc1cccc2ccccc12 (stereo not given)
IC50: 0.5 µM | IC50 [1]: > 50 µM | IC50 [2]: 0.32 µM

Cc1ccc(-c2csc(NC(=O)C=Cc3ccc(S(=O)(=O)N4CCOCC4)cc3)n2)o1
IC50: 10 µM | IC50 [1]: 32 µM | IC50 [2]: 10 µM

COc1ccccc1C1CC(c2ccc(NS(C)(=O)=O)cc2)=NN1C(=O)c1cccs1 (stereo not given)
IC50: > 50 µM (inactive) | IC50 [1]: > 50 µM | IC50 [2]: > 50 µM

Cc1cc(Nc2cc(C3CC3)[nH]n2)nc(N2CCCC2)n1
IC50: 0.1 µM | IC50 [1]: 0.25 µM | IC50 [2]: 0.079 µM

Cc1ccc(S(C)(=O)=O)cc1Nc1nccc(-c2sc(N)nc2-c2ccccc2)n1
IC50: 0.13 µM | IC50 [1]: 5 µM | IC50 [2]: 0.079 µM

Cc1c(C(=O)NCCCCn2ccnc2)oc2c(C)cccc12
IC50: 0.5 µM | IC50 [1]: > 50 µM | IC50 [2]: 0.5 µM

CCc1nn(-c2ncc(F)c(NC(C)C)n2)c(N)c1C1CCCCC1
IC50: 3.2 µM | IC50 [1]: 1 µM | IC50 [2]: 1.6 µM

CCOc1ccc(NC(=O)C=Cc2ccc(CC)o2)cc1
IC50: 25 µM | IC50 [1]: > 50 µM | IC50 [2]: 16 µM

O=C(NCc1ccncc1)c1ccccc1N1CCCN(C(=O)Cc2ccc(F)c(F)c2)CC1
IC50: 0.079 µM | IC50 [1]: > 50 µM | IC50 [2]: 0.079 µM

COc1cccc(Nc2cc(C)nc(-c3ccccn3)n2)c1
IC50: 13 µM | IC50 [1]: 5 µM | IC50 [2]: 7.9 µM

Cc1[nH]nc2c1C(c1ccc(OCc3ccccc3F)cc1)SCC(=O)N2 (stereo not given)
IC50: 3.2 µM | IC50 [1]: > 50 µM | IC50 [2]: 0.79 µM

O=C(CCc1ccc(-c2ccccc2)o1)N1CCN(c2ccc(O)cc2)CC1
IC50: 1.3 µM | IC50 [1]: > 50 µM | IC50 [2]: 0.79 µM

N#Cc1cc(N2CCCC2=O)ccc1Sc1ccccc1CO
IC50: 0.4 µM | IC50 [1]: > 50 µM | IC50 [2]: 0.25 µM

Nc1nonc1-c1nc2cncc(C(=O)N3CC[C@H](N)C3)c2n1CC1CC1
IC50: > 50 µM (inactive) | IC50 [1]: > 50 µM | IC50 [2]: 13 µM

Cc1ccc2onc(Nc3ccnc(Nc4cccc(S(C)(=O)=O)c4)n3)c2c1
IC50: 0.63 µM | IC50 [1]: 5 µM | IC50 [2]: 0.4 µM

COc1ccc(-c2nc3ncccc3o2)cc1NC(=O)c1cccs1
IC50: 2.5 µM | IC50 [1]: > 50 µM | IC50 [2]: 2 µM

Cc1ccc(NC(=O)c2ccnc(N3CCCC3)c2)cc1-c1cc(C(N)=O)ccc1C
IC50: 10 µM | IC50 [1]: > 50 µM | IC50 [2]: 3.2 µM

O=C(Nc1cccc(F)c1)N1CCC(Oc2cccc(-c3cccnc3)c2)CC1
IC50: 0.63 µM | IC50 [1]: 25 µM | IC50 [2]: 0.5 µM

COc1ccc(-c2cc(C)no2)cc1S(=O)(=O)Nc1ccc(C)c(C)c1
IC50: 7.9 µM | IC50 [1]: 16 µM | IC50 [2]: 5 µM

COc1cccc(-c2cc(C(F)(F)F)nc(-n3ccc([N+](=O)[O-])n3)n2)c1
IC50: 0.4 µM | IC50 [1]: > 50 µM | IC50 [2]: 0.2 µM

CNS(=O)(=O)c1ccccc1Nc1nc(Nc2cc(C)nn2C)ncc1Cl
IC50: 0.79 µM | IC50 [1]: 0.25 µM | IC50 [2]: 0.5 µM

O=c1cc(NCCCNCc2c[nH]c3ccc(Br)cc23)[nH]c2ccccc12
IC50: > 50 µM (inactive) | IC50 [1]: > 50 µM | IC50 [2]: 32 µM

Cc1cc(NC(=O)C2CCCCC2)n(-c2nc3c(c(=O)[nH]2)CCC3)n1
IC50: 0.5 µM | IC50 [1]: 2 µM | IC50 [2]: 0.16 µM

CN(CC1CCCO1)S(=O)(=O)c1ccc(C(=O)Nc2nc(-c3ccccn3)cs2)cc1 (stereo not given)
IC50: 2 µM | IC50 [1]: 20 µM | IC50 [2]: 1.3 µM

NCc1csc(Nc2cc(Oc3ccccc3)ncn2)n1
IC50: 25 µM | IC50 [1]: > 50 µM | IC50 [2]: 32 µM

CC(=O)Nc1ccc(-c2ccnc(Nc3cccc(C#N)c3)n2)cc1
IC50: 6.3 µM | IC50 [1]: 13 µM | IC50 [2]: 3.2 µM

CC(C)(C)c1cc(NC2CC2)nc(-c2ccccn2)n1
IC50: 1.6 µM | IC50 [1]: 0.32 µM | IC50 [2]: 1.3 µM

Cc1cc(=O)n2nc(Oc3ccc(C#N)cc3Cl)sc2n1
IC50: 32 µM | IC50 [1]: 32 µM | IC50 [2]: 25 µM

CC(C)c1cc(Nc2cc(Cc3ccccc3)nc(NC3CCC(O)CC3)n2)n[nH]1 (stereo not given)
IC50: 0.079 µM | IC50 [1]: 0.0063 µM | IC50 [2]: 0.032 µM

NC(N)=Nc1nc(-c2ccc(NC(N)=NCCN3CCCC3)cc2)cs1
IC50: > 50 µM (inactive) | IC50 [1]: > 50 µM | IC50 [2]: > 50 µM

COc1ccc(NC(=O)c2ccc(NC(=O)CN(c3ccccc3C)S(C)(=O)=O)cc2)cc1
IC50: 25 µM | IC50 [1]: 25 µM | IC50 [2]: 20 µM

CN(Cc1nc2ccccc2s1)C(=O)C=Cc1cc2ccccc2o1
IC50: 0.79 µM | IC50 [1]: > 50 µM | IC50 [2]: 1 µM

CCCCN(C(=O)c1ccc(NC(=O)C(C)C)cc1)c1ccccc1
IC50: > 50 µM (inactive) | IC50 [1]: > 50 µM | IC50 [2]: 10 µM

O=C1CN(C2CCCc3c(OCc4ccncc4)cccc32)C(=O)N1C1CCCCC1 (stereo not given)
IC50: 0.016 µM | IC50 [1]: > 50 µM | IC50 [2]: 0.013 µM

Cc1nc(C(=O)Nc2ccc3c(c2)OCO3)nn1-c1ccc(F)cc1
IC50: 1.3 µM | IC50 [1]: > 50 µM | IC50 [2]: 1 µM

COc1ccc2c(Cl)c(C(=O)N3CCC3)sc2c1Cl
IC50: 2.5 µM | IC50 [1]: > 50 µM | IC50 [2]: 0.79 µM

Cc1cccnc1NC(=O)c1cccc(OCc2c(C)noc2C)c1
IC50: 50 µM | IC50 [1]: 2.5 µM | IC50 [2]: 40 µM

Cc1cccc(NS(=O)(=O)c2ccc3c(c2)C(=O)c2cc(S(=O)(=O)Nc4cccc(C)c4C)ccc2-3)c1C
IC50: 0.4 µM | IC50 [1]: 32 µM | IC50 [2]: 0.4 µM

COc1ccccc1-c1c(C)[nH]c2nc(N)nc(C)c12
IC50: 0.25 µM | IC50 [1]: > 50 µM | IC50 [2]: 0.13 µM

O=C(Nc1cccc(S(=O)(=O)Nc2ccc(Br)cc2)c1)c1ccc([N+](=O)[O-])s1
IC50: 0.13 µM | IC50 [1]: 2.5 µM | IC50 [2]: 0.1 µM

CCN(CC)S(=O)(=O)c1ccc(Cn2nc(C(=O)Nc3ccncn3)c3ccccc32)cc1
IC50: 0.4 µM | IC50 [1]: 25 µM | IC50 [2]: 0.4 µM

CN(C)CCOc1ccc(N2CCN(S(=O)(=O)c3ccc(Cl)cc3)CC2)cc1
IC50: 0.63 µM | IC50 [1]: > 50 µM | IC50 [2]: 0.5 µM

Cc1ccccc1NS(=O)(=O)c1ccc2[nH]cc(C(=O)NC3CCCCC3)c(=O)c2c1
IC50: 16 µM | IC50 [1]: 25 µM | IC50 [2]: 10 µM

O=C(COc1nn(-c2ccccc2)c2ncccc12)NCc1ccccc1
IC50: > 50 µM (inactive) | IC50 [1]: > 50 µM | IC50 [2]: 32 µM

Nc1cc(-c2ccc3ncnc(N4CCOCC4)c3c2)cnc1N
IC50: 5 µM | IC50 [1]: 3.2 µM | IC50 [2]: 1.6 µM

O=C(NCC1CCCCN1C(=O)c1cccc2ccccc12)c1ccccc1 (stereo not given)
IC50: 5 µM | IC50 [1]: > 50 µM | IC50 [2]: 3.2 µM

CCOc1ccc(CC(=O)N2c3ccccc3CC2C(=O)NC)cc1 (stereo not given)
IC50: > 50 µM (inactive) | IC50 [1]: > 50 µM | IC50 [2]: > 50 µM

CC(=O)Nc1ccc(-c2cnc(N)c(-c3nc4ccc(F)cc4[nH]3)c2)cc1
IC50: > 50 µM (inactive) | IC50 [1]: 0.79 µM | IC50 [2]: > 50 µM

Cc1ccc(NC(=O)c2ccc([N+](=O)[O-])s2)cc1S(=O)(=O)N1CCOCC1
IC50: 0.4 µM | IC50 [1]: 5 µM | IC50 [2]: 0.25 µM
